In this assay the test system is Mycobacterium tuberculosis SMR. The assay is described as follows: Antimicrobial activity of mimosamycin against tubercle bacilli (Table 4). Format: cell-based. To be noted: 672 h.

The structures appear in SMILES notation. In brackets after ≈: the same amount, converted by molar mass.

One may read the MIC as the least concentration at which growth counts as inhibited.

Take `COC1=C(C)C(=O)c2cc(=O)n(C)cc2C1=O` [Mimosamycin]: the MIC was found to be 1.56 µg/mL (≈ 6.69 µM).

(Values after patent publication US4127446A, “Process for producing antibiotics mimosamycin and chlorocarcins A, B and C” (priority 1975, dated 1978).)
